Among the data in PubChem BioAssay (NCI) are TGI values, retold here.

Among the test systems are SF-295 CNS; HCT-15 colon; SK-MEL-5 melanoma; EKVX NSCLC; UACC-62 melanoma; MDA-MB-231 breast; RPMI-8226 leukemia; MCF7 breast; SK-MEL-2 melanoma; MALME-3M melanoma; IGROV1 ovarian; ACHN renal; PC-3 prostate; HCT-116 colon; UACC-257 melanoma; TK-10 renal; OVCAR-4 ovarian; NCI-H23 lung.
Common to all, as to assay: inhibition of tumour cell growth, NCI panel, 48 h

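Grown in 96-well plates, cells were treated for 48 hours with each compound at five concentrations. Insufficient inhibition: endpoint recorded as highest concentration tested. At the TGI there is no net growth.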

Turning to `CCOP(C)(=O)C(Cc1c[nH]c2ccccc12)C(=O)O` (stereo not drawn), the TGI in the experiment on SF-295 CNS, with HCT-15 colon, in the experiment on SK-MEL-5 melanoma, in the experiment on EKVX NSCLC, in the experiment on UACC-62 melanoma and in the experiment on MDA-MB-231 breast was greater than 100 µM in each case. The TGI in the experiment with RPMI-8226 leukemia, in the experiment on MCF7 breast, with SK-MEL-2 melanoma, in the experiment with MALME-3M melanoma, with IGROV1 ovarian and in the experiment with ACHN renal was greater than 100 µM each time. The TGI with PC-3 prostate and in the experiment on HCT-116 colon was greater than 100 µM in each case.
In the case of `CCN(CC)CC(=O)Nc1c(C(N)=O)nnn1Cc1cc(Cl)c(C(=O)c2ccc(Cl)cc2)c(Cl)c1`, the TGI in the experiment with UACC-257 melanoma was 32.6 µM; in the experiment with SF-295 CNS, 32.9 µM; in the experiment on TK-10 renal, 57.4 µM; with HCT-15 colon, 34.4 µM; in the experiment with SK-MEL-5 melanoma, 30.4 µM; in the experiment on EKVX NSCLC it was greater than 100 µM. The TGI is 35.4 µM in the experiment with UACC-62 melanoma; 34.8 µM in the experiment with MDA-MB-231 breast; 77.7 µM with RPMI-8226 leukemia; 32.4 µM in the experiment on MCF7 breast; 28.4 µM in the experiment with SK-MEL-2 melanoma; 74.4 µM in the experiment on IGROV1 ovarian. The TGI was greater than 100 µM in the experiment on OVCAR-4 ovarian; greater than 100 µM in the experiment with ACHN renal; 38.7 µM in the experiment on PC-3 prostate; 32.1 µM in the experiment on HCT-116 colon; 37.4 µM in the experiment with NCI-H23 lung.
Consider `Cc1ccc(S(=O)(=O)N2CC3OC(C)(C)OC3C2CO)cc1` (stereo not drawn), for which the TGI in the experiment with UACC-257 melanoma, in the experiment with SF-295 CNS, in the experiment with TK-10 renal, with HCT-15 colon, in the experiment with SK-MEL-5 melanoma and in the experiment on MDA-MB-231 breast was greater than 100 µM throughout. For the same molecule, the TGI in the experiment on RPMI-8226 leukemia, in the experiment on MCF7 breast, in the experiment with SK-MEL-2 melanoma, in the experiment with MALME-3M melanoma, in the experiment with IGROV1 ovarian and in the experiment with OVCAR-4 ovarian was greater than 100 µM each time. For the same molecule, the TGI in the experiment on ACHN renal, in the experiment on PC-3 prostate and with HCT-116 colon was greater than 100 µM each time.
With `Cc1ccc(/C(O)=C/c2nc3ccccc3oc2=O)cc1`, the TGI in the experiment with UACC-257 melanoma is greater than 100 µM; in the experiment on SF-295 CNS it was greater than 100 µM; in the experiment on TK-10 renal, greater than 100 µM; with HCT-15 colon, greater than 100 µM; in the experiment with SK-MEL-5 melanoma it was 46.2 µM; in the experiment on EKVX NSCLC, greater than 100 µM. Moreover, the TGI in the experiment on UACC-62 melanoma, in the experiment with MDA-MB-231 breast, in the experiment with MCF7 breast, in the experiment on SK-MEL-2 melanoma, in the experiment with MALME-3M melanoma and with IGROV1 ovarian was greater than 100 µM throughout. Moreover, the TGI in the experiment on OVCAR-4 ovarian, with ACHN renal, in the experiment on PC-3 prostate, in the experiment with HCT-116 colon and with NCI-H23 lung was greater than 100 µM each time.
For the molecule `COc1ccc(NC(=O)CC(=O)N2N=C(N3CCCCC3)CC2c2ccccc2)cc1` (stereo not drawn), the TGI with UACC-257 melanoma, in the experiment with SF-295 CNS, in the experiment on TK-10 renal, in the experiment on HCT-15 colon, in the experiment with SK-MEL-5 melanoma and in the experiment with EKVX NSCLC was greater than 100 µM in each case. Further, the TGI in the experiment on UACC-62 melanoma, with MDA-MB-231 breast, in the experiment on MCF7 breast, with SK-MEL-2 melanoma, in the experiment with MALME-3M melanoma and in the experiment with IGROV1 ovarian was greater than 100 µM in each case. Further, the TGI with OVCAR-4 ovarian, with ACHN renal, with PC-3 prostate, in the experiment on HCT-116 colon and with NCI-H23 lung was greater than 100 µM in each case.
Turning to `CC1=NN(c2nc(N)nc(CCl)n2)CC1`, the TGI in the experiment with UACC-257 melanoma was greater than 100 µM; with SF-295 CNS, greater than 100 µM; in the experiment on TK-10 renal, greater than 100 µM; in the experiment with HCT-15 colon, 43.6 µM; in the experiment on SK-MEL-5 melanoma it was 32.2 µM; in the experiment with EKVX NSCLC, 35.8 µM. Also, the TGI in the experiment with UACC-62 melanoma was 31 µM; in the experiment on MDA-MB-231 breast, greater than 100 µM; in the experiment on RPMI-8226 leukemia, greater than 100 µM; in the experiment with MCF7 breast, greater than 100 µM; in the experiment on SK-MEL-2 melanoma, greater than 100 µM; with IGROV1 ovarian, 25.9 µM. In addition, the TGI in the experiment on OVCAR-4 ovarian is 32.2 µM; in the experiment on ACHN renal it was 38.5 µM; in the experiment on PC-3 prostate, greater than 100 µM; in the experiment with HCT-116 colon, 87.4 µM; with NCI-H23 lung it was 41.2 µM.
For `COc1ccc(CN2C[C@H]3[C@@H](CC(=O)O[C@H]3C)CC2=O)cc1`, the TGI in the experiment on UACC-257 melanoma, with SF-295 CNS, in the experiment on HCT-15 colon, in the experiment with SK-MEL-5 melanoma, in the experiment with EKVX NSCLC and in the experiment with UACC-62 melanoma was greater than 100 µM throughout. Also, the TGI in the experiment with MDA-MB-231 breast, in the experiment with RPMI-8226 leukemia, in the experiment with MCF7 breast, in the experiment on SK-MEL-2 melanoma, with MALME-3M melanoma and in the experiment on IGROV1 ovarian was greater than 100 µM throughout. Besides, the TGI with OVCAR-4 ovarian, with ACHN renal, with PC-3 prostate, in the experiment with HCT-116 colon and in the experiment on NCI-H23 lung was greater than 100 µM in each case.
As to `CCCCCCCC1(N=[N+]=[N-])C(=O)c2ccccc2N(C)C1=O` (stereo not drawn), the TGI in the experiment with UACC-257 melanoma, with SF-295 CNS, with TK-10 renal, in the experiment on HCT-15 colon, in the experiment with SK-MEL-5 melanoma and in the experiment on EKVX NSCLC was greater than 100 µM throughout. Also, the TGI with UACC-62 melanoma, with MDA-MB-231 breast, in the experiment on RPMI-8226 leukemia, in the experiment with MCF7 breast, in the experiment on MALME-3M melanoma and in the experiment on IGROV1 ovarian was greater than 100 µM in each case. The TGI in the experiment with OVCAR-4 ovarian, with ACHN renal, with PC-3 prostate, with HCT-116 colon and in the experiment with NCI-H23 lung was greater than 100 µM in each case.
`C[C@H]1O[C@@H](c2c(O)ccc3ccccc23)C[C@@H](N(C)C)C1O` (stereo partly drawn): the TGI in the experiment on UACC-257 melanoma, in the experiment with SF-295 CNS, in the experiment with TK-10 renal, with HCT-15 colon, in the experiment on SK-MEL-5 melanoma and in the experiment with EKVX NSCLC was greater than 100 µM throughout. The TGI with UACC-62 melanoma, with MDA-MB-231 breast, in the experiment with MCF7 breast, in the experiment with SK-MEL-2 melanoma, with MALME-3M melanoma and in the experiment on IGROV1 ovarian was greater than 100 µM each time. For the same molecule, the TGI in the experiment on OVCAR-4 ovarian, in the experiment with ACHN renal, in the experiment on PC-3 prostate, in the experiment with HCT-116 colon and with NCI-H23 lung was greater than 100 µM each time.
